From patent US20250361480A1, “REINFORCED ENGINEERED CELLULARIZED-TISSUE” (Ramot at Tel-Aviv University Ltd., priority 2023, published 2025)

Experiments:
[1] = tested on: Primary human umbilical vein endothelial cells (HUVECs); assay: Cell viability of HUVECs in 2D culture with SOx (PrestoBlue); format: cell-based; settings: SOx concentrations lower than 0.1% in the culturing medium, 48 hours, FIG. 2C
Protocol: Primary human umbilical vein endothelial cells (HUVECs) (Angio-Proteomie) were maintained in Endothelial Growth Medium (EGM-2) (Lonza) supplemented with an additional 1.5% (v/v) fetal bovine serum (FBS) (Biological Industries). Daily, PrestoBlue™ Cell Viability Reagent (Invitrogen) was added and cells were incubated for a fixed time interval. The medium was then transferred to a clean, opaque tissue culture well plate and fresh medium was added to the cells. The fluorescence was measured at 560/590 nm (Infinite M200 Pro).
Cells were incubated for 48 hours in 2D culture in order to allow toxic effects to become discernable. Data are presented in FIG. 2C as mean±standard deviation (SD), n=4.

[2] = Rheological testing, shear thinning of hydrogel; format: physicochemical, porcine; settings: 37° C., FIG. 2D
Protocol: Rheological measurements were performed using a Discovery HR-3 Hybrid Rheometer (TA Instruments, DE) with a 20 mm diameter parallel plate geometry and a Peltier plate to maintain the sample temperature. Shear thinning experiments were performed by varying the strain rate while maintaining a fixed strain of 20%.
The mechanical properties of an exemplary native ECM-based hydrogel and of cross-linked hydrogels were assessed by rheological measurements. Shear thinning Measurements were conducted at 37° C. Data are presented as mean±SD, n=3. P-values were calculated using a Comparison of Fits test with an Extra Sum of Squares F-test.

[3] = Compressive (bulk) modulus of hydrogel; format: physicochemical, porcine; settings: compression, FIG. 2E
Protocol: The compressive modulus measurements were performed using a Discovery HR-3 Hybrid Rheometer (TA Instruments, DE) with a 20 mm diameter parallel plate geometry and a Peltier plate to maintain the sample temperature. Bulk modulus tests were performed by compressing the samples at a fixed rate of 100 μm s^−1.
Alongside the rheological testing, the bulk mechanical properties of the hydrogel were also assessed. Samples were compressed, and the linear elastic modulus was calculated. Data are presented as mean±SD, n=3.

[4] = ninhydrin absorbance normalized to control, FIG. 2F
Protocol: Aliquots of hydrogel (1 mL) were taken and either reacted with SOx or used as a control. Samples were lyophilized and then immersed in a 0.05% acetic acid solution (1 mL). To this was added 2% Ninhydrin in ethanol (w/v) (1 mL). The mixture was boiled for 90 minutes. Aliquots were taken and the absorbance of the solution was recorded at 570 nm (Infinite M200 Pro; Tecan, Switzerland).
To determine the ability of SOx to react with an ECM-based hydrogel, the concentration of amine groups present in the ECM before and after exposure to the Sox was assessed. […] Data are presented as mean±SD, n=4. All values were normalized to the average value of the control group. P-values were calculated using a one-tailed, unpaired, parametric t-test assuming that all samples have the same distribution.

[5] = previous studies; cells added after crosslinking; cited from earlier work

Oxidized sucrose [SOx]
impact on cell viability [1]: no impact on cell viability
gel viscosity, further change when increasing the SOx concentration ([2]; SOx raised from 0.03% to 0.07%): smaller increase
gel viscosity versus control gel ([2]; hydrogel cross-linked with 0.03% SOx): large increase in gel viscosity
hydrogel bulk modulus (linear elastic modulus) with and without exposure to SOx [3]: significant reinforcement of the hydrogel
amines of the hydrogel that had reacted with the cross-linker [4]: 46%
toxicity when used to cross-link non-cellularized scaffolds [5]: reduced toxicity profile
